Test [1] deals with T1, purified class A, C and D enzymes (UniProt Q9F663).
T1 construct: rows headed: Ki (KPC-2, NCF); other: purified KPC-2; nitrocefin reporter substrate
The class given is biochemical. The following applies: read-out: Ki (KPC-2, NCF); purified KPC-2; nitrocefin reporter substrate.

In the next test the target is T2, VIM-1 (Pseudomonas aeruginosa, UniProt A0A0F7KYQ8).
T2 construct: made in house; host or cells: ECM6711 strain carrying pUCP24-VIM-1 plasmid; culture supernatant used unpurified
Briefly: biochemical. The following applies: cleavage of nitrocefin (200 uM) by VIM-1 supernatant.

The target of test [2] is T3, NDM-1 (Klebsiella pneumoniae, UniProt C7C422). Briefly: Inhibition of purified class B carbapenemase NDM-1 (Ki, imipenem substrate). The class given is biochemical.
For the next test, the system named is ECM6703 (pUCP24-NDM-1). The class given is cell-based, E. coli. The following applies: NDM-1 producing strain; Compound 1 at fixed 4 μg/ml or 8 μg/ml.
For a further test, the system named is ECM6711 (pUCP24-VIM-1). The class given is cell-based, E. coli. The settings on record: VIM-1 producing strain; Compound 1 at fixed 4 μg/ml or 8 μg/ml.
In test [3] the target is T3, NDM-1. Briefly: biochemical.
In test [4] the test system is clinical isolates expressing class A, B and D carbapenemases. Kind of test: Carbapenem potentiation by Compound 1, whole panel of clinical isolates (MIC). The class given is cell-based. The settings on record: Compound 1 at fixed 5 μg/ml in the growth media; all the strains. An excerpt: The results are present in Table 8.
For a further test, the system named is KP1054 (VIM-1, SHV-11). Briefly: Carbapenem potentiation against clinical isolate (MIC). The class given is cell-based, Klebsiella pneumoniae. The settings on record: antibiotic alone.
Test [5] deals with KP1086 (TEM, SHV, CTX-M-15, OXA-48). Described as above. The class given is cell-based, Klebsiella pneumoniae. The following applies: antibiotic alone.
The subject of test [6] is KP1087 (KPC-2, CTX-M-15, SHV-11, TEM-1). The test is described as above. The class given is cell-based. The settings on record: antibiotic alone.
A further test concerns KP1014 (VIM-1). The description is as above. It is filed as cell-based, Klebsiella pneumoniae. The following applies: antibiotic alone.
In test [7] the test system is KP1064 (KPC-2, SHV-11, TEM-1). Described as above. It is filed as cell-based, Klebsiella pneumoniae. The following applies: antibiotic alone.
For the next test, the system named is AB1144 (NDM-1). Described as above. It is filed as cell-based, Acinetobacter baumannii. The following applies: AB1144; antibiotic alone.
Test [8] concerns EC1064 (NDM-1, CMY-6, CTX-M-15). Described as above. The class given is cell-based, Escherichia coli. The settings on record: antibiotic alone.
Test [9] concerns KP1084 (KPC-3, SHV-11, TEM-1). Described as above. The class given is cell-based, Klebsiella pneumoniae. The following applies: antibiotic alone.
The test system of test [10] is KP1081 (NDM-1, TEM-1, SHV-11, CMY-6, CTX-M-15). Described as above. It is filed as cell-based. The following applies: antibiotic alone.
The next test relates to EA1019 (SHV-5, VIM-1). Described as above. It is filed as cell-based, Enterobacter aerogenes. The settings on record: EA1019; antibiotic alone.
Test [11] has as its system KP1074 (KPC-3, SHV-11, TEM). Described as above. The class given is cell-based, Klebsiella pneumoniae. The settings on record: antibiotic alone.
Test [12] deals with KP1004 (KPC-2, TEM-1, SHV-11). The description is as above. The settings on record: antibiotic alone. It is filed as cell-based, Klebsiella pneumoniae.
Test [13] deals with strains of Enterobacteriaceae overexpressing various carbapenemases (class A and B). Briefly: microbe, parasite or virus in culture. The settings on record: carbapenem alone or + Compound 14 at fixed 4 μg/ml, read-out: MIC. The class given is cell-based. An excerpt: Several strains simultaneously expressing both class A and class B carbapenemases, which were constructed using conjugation, were also included in the panel.

T3 sequence (C7C422 29-270, looked up, species assumed): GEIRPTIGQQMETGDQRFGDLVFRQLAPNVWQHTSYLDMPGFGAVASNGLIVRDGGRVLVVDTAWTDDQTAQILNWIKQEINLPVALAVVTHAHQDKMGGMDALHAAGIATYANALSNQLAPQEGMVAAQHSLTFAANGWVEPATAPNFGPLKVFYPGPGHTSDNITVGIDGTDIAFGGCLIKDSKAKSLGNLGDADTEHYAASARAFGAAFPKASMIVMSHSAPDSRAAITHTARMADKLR

What is called Ki is a measure of affinity in units of concentration, obtained from inhibition or displacement. In general, IC50 refers to the midpoint of a concentration-inhibition curve. With `O=C(O)c1cccc2c1OB(O)[C@@H](Sc1nncs1)C2` [Compound 1, (R)-3-(1,3,4-thiadiazol-2-ylthio)-2-hydroxy-3,4-dihydro-2H-benzo[e][1,2]oxaborinine-8-carboxylic acid], the Ki is 100 to 1000 nM in test [1]; 10 to 100 nM at NDM-1 [2]; 10 to 100 nM at NDM-1 [3] (Ki, Imipenem); 10 to 100 nM on NDM-1 [3] (cleavage of biapenem (100 uM) by NDM-1, read-out: Ki, Biapenem); 10 to 100 nM at NDM-1 [3] (cleavage of meropenem (100 uM) by NDM-1, read-out: Ki, Meropenem); more than 100 nM at NDM-1 [3] (cleavage of tebipenem (100 uM) by NDM-1, read-out: Ki, Tebipenem). Besides, the IC50 against VIM-1 was less than 1000 nM. Also, the “imipenem MIC in the presence of Compound 1” value in the test on ECM6703 (pUCP24-NDM-1) and in the test on ECM6711 (pUCP24-VIM-1) was “decreased to the level of the strain containing empty vector” in each case. The “carbapenem MIC (biapenem, doripenem, imipenem, meropenem)” value in test [4] is “significantly reduced”.
Turning to `C[C@@H](O)[C@H]1C(=O)N2C(C(=O)O)=C(S[C@@H]3CN[C@H](CNS(N)(=O)=O)C3)[C@H](C)[C@H]12` [Doripenem], the “Carbapenem MIC Alone” value with KP1054 (VIM-1, SHV-11) was “Z (MIC of greater than 10 μg/mL)”; in test [5], “Z (MIC of greater than 10 μg/mL)”; in test [6], “Z (MIC of greater than 10 μg/mL)”; in the test with KP1014 (VIM-1), “Z (MIC of greater than 10 μg/mL)”; in test [7], “Z (MIC of greater than 10 μg/mL)”; with AB1144 (NDM-1), “Z (MIC of greater than 10 μg/mL)”. In addition, the “Carbapenem MIC Alone” value is listed as “Z (MIC of greater than 10 μg/mL)” in test [8]; “Z (MIC of greater than 10 μg/mL)” in test [9]; “Z (MIC of greater than 10 μg/mL)” in [10]; “Z (MIC of greater than 10 μg/mL)” in the test with EA1019 (SHV-5, VIM-1); “Z (MIC of greater than 10 μg/mL)” in test [11]; “Y (MIC of 1 μg/mL to 10 μg/mL)” in test [12].
Regarding `C[C@@H](O)[C@H]1C(=O)N2C(C(=O)O)=C(S[C@@H]3CN[C@H](C(=O)N(C)C)C3)[C@H](C)[C@H]12` [Meropenem, reference compound], the “Carbapenem MIC Alone” value in the test with KP1054 (VIM-1, SHV-11) is “Z (MIC of greater than 10 μg/mL)”; in [5], “Z (MIC of greater than 10 μg/mL)”; in test [6] it was “Z (MIC of greater than 10 μg/mL)”; in the test on KP1014 (VIM-1), “Y (MIC of 1 μg/mL to 10 μg/mL)”; in test [7] it was “Z (MIC of greater than 10 μg/mL)”; in the test with AB1144 (NDM-1) it was “Z (MIC of greater than 10 μg/mL)”. Besides, the “Carbapenem MIC Alone” value was “Z (MIC of greater than 10 μg/mL)” in [8]; “Z (MIC of greater than 10 μg/mL)” in test [9]; “Z (MIC of greater than 10 μg/mL)” in [10]; “Z (MIC of greater than 10 μg/mL)” with EA1019 (SHV-5, VIM-1); “Z (MIC of greater than 10 μg/mL)” in test [11]; “Y (MIC of 1 μg/mL to 10 μg/mL)” in test [12]. Also, the MIC in test [13] (Enterobacter cloacae, strain ECL1026, Enterobacter cloacae (KPC)) was 1 to 10 µg/mL; in test [13] (Enterobacter cloacae, strain ECL1036, Enterobacter cloacae (KPC)) it was 1 to 10 µg/mL; in [13] (Enterobacter cloacae, strain ECL1045, Enterobacter cloacae (VIM-1)), 1 to 10 µg/mL; in test [13] (Enterobacter cloacae, strain ECL1055, Enterobacter cloacae (KPC)) it was 1 to 10 µg/mL; in test [13] (Enterobacter cloacae, strain ECL1057, Enterobacter cloacae (NDM-1, TEM-1, CTX-M-15)), more than 10 µg/mL; in test [13] (Enterobacter cloacae, strain ECL1082, Enterobacter cloacae (VIM-1)), 1 to 10 µg/mL. Besides, the MIC was more than 10 µg/mL in [13] (Enterobacter cloacae, strain ECLM1013, Enterobacter cloacae (NDM, KPC)); more than 10 µg/mL in test [13] (Enterobacter cloacae, strain ECLM1014, Enterobacter cloacae (NDM, KPC)); more than 10 µg/mL in test [13] (Enterobacter cloacae, strain ECLM1015, Enterobacter cloacae (NDM, KPC)); more than 10 µg/mL in test [13] (Enterobacter cloacae, strain ECLM1016, Enterobacter cloacae (NDM, KPC)); more than 10 µg/mL in [13] (Enterobacter cloacae, strain ECLM1017, Enterobacter cloacae (VIM, KPC)); more than 10 µg/mL in [13] (Enterobacter cloacae, strain ECLM1018, Enterobacter cloacae (VIM, KPC)). The MIC is more than 10 µg/mL in test [13] (Enterobacter cloacae, strain ECLM1019, Enterobacter cloacae (VIM, KPC)); more than 10 µg/mL in [13] (Escherichia coli, strain EC1064, Escherichia coli (NDM-1, CMY-6, CTX-M-15)); more than 10 µg/mL in test [13] (Escherichia coli, strain EC1068, Escherichia coli (VIM-1)); more than 10 µg/mL in test [13] (Klebsiella aerogenes, strain EA1019, Enterobacter aerogenes (SHV-5, VIM-1)); more than 10 µg/mL in test [13] (Klebsiella pneumoniae, strain KP1004, Klebsiella pneumoniae (KPC TEM SHV)); more than 10 µg/mL in test [13] (Klebsiella pneumoniae, strain KP1014, Klebsiella pneumoniae (Vim-1, TEM, SHV)). In addition, the MIC is 1 to 10 µg/mL in test [13] (Klebsiella pneumoniae, strain KP1061, Klebsiella pneumoniae (KPC TEM SHV)); more than 10 µg/mL in [13] (Klebsiella pneumoniae, strain KP1064, Klebsiella pneumoniae (KPC TEM SHV)); more than 10 µg/mL in [13] (Klebsiella pneumoniae, strain KP1070, Klebsiella pneumoniae (KPC TEM SHV)); more than 10 µg/mL in test [13] (Klebsiella pneumoniae, strain KP1084, Klebsiella pneumoniae (KPC-3, SHV-11, TEM-1)); more than 10 µg/mL in test [13] (Klebsiella pneumoniae, strain KP1097, Klebsiella pneumoniae (IMP-1 SHV)); more than 10 µg/mL in test [13] (Klebsiella pneumoniae, strain KP1098, Klebsiella pneumoniae (IMP-26 TEM SHV)). Further, the MIC in test [13] (Klebsiella pneumoniae, strain KPM1097, Klebsiella pneumoniae (NDM, KPC)) was more than 10 µg/mL; in test [13] (Klebsiella pneumoniae, strain KPM1099, Klebsiella pneumoniae (NDM, KPC)) it was more than 10 µg/mL; in [13] (Klebsiella pneumoniae, strain KPM1107, Klebsiella pneumoniae (NDM, KPC)), more than 10 µg/mL; in test [13] (Klebsiella pneumoniae, strain KPM1108, Klebsiella pneumoniae (NDM, KPC)) it was more than 10 µg/mL; in [13] (Klebsiella pneumoniae, strain KPM1123, Klebsiella pneumoniae (KPC-2 TEM SHV)) it was more than 10 µg/mL; in [13] (Klebsiella pneumoniae, strain KPM1344, Klebsiella pneumoniae (VIM-1)) it was more than 10 µg/mL. Besides, the MIC in test [13] (Klebsiella pneumoniae, strain KPM1346, Klebsiella pneumoniae (NDM-1 TEM SHV CTX-M-15 CMY)) was more than 10 µg/mL; in [13] (Klebsiella pneumoniae, strain KPM1347, Klebsiella pneumoniae (NDM-1 SHV CTX-M-15)) it was more than 10 µg/mL; in [13] (strain EC1065, Escherichai coli (IMP-1 CMY-2)) it was 1 to 10 µg/mL.

Values taken from patent publication US10206937B2, “Boronic acid derivatives and therapeutic uses thereof” (Qpex Biopharma, Inc., priority 2014, dated 2019).
